Test [1] deals with Staphylococcus aureus MRQR (methicillin resistant and quinolone resistant). In words: MIC, agar-dilution, staphylococci. It is filed as cell-based. As to conditions: 10^4 CFU/spot, 37° C., 24 hours. The procedure: (§1) The following results were obtained on a standard in-vitro test system. The activity is described in terms of the minimum inhibitory concentration (MIC) determined by the agar-dilution technique with an inoculum size of 10^4 CFU/spot. Typically, compounds are active in the range 0.01 to 256 μg/ml.
(§2) Staphylococci were tested on agar, using an inoculum of 10^4 CFU/spot and an incubation temperature of 37° C. for 24 hours—standard test conditions for the expression of methicillin resistance.

In test [2] the test system is Staphylococcus aureus MSQS (methicillin sensitive and quinolone sensitive). In words: MIC, agar-dilution, staphylococci. As to conditions: 10^4 CFU/spot, 37° C., 24 hours. It is filed as cell-based. The procedure:
as §1, §2

The subject of the next test is Streptococcus pyogenes. Kind of test: MIC, agar with 5% defibrinated horse blood. It is filed as cell-based. As to conditions: agar + 5% horse blood, 5% carbon dioxide, 48 hours. As to the method: as §1
(§3) Streptococci and enterococci were tested on agar supplemented with 5% defibrinated horse blood, an inoculum of 10^4 CFU/spot and an incubation temperature of 37° C. in an atmosphere of 5% carbon dioxide for 48 hours—blood is required for the growth of some of the test organisms. Fastidious Gram negative organisms were tested in Mueller-Hinton broth, supplemented with hemin and NAD, grown aerobically for 24 hours at 37° C., and with an innoculum of 5×10^4 CFU/well.

In another test the test system is Streptococcus pneumoniae. Kind of test: MIC, agar with 5% defibrinated horse blood. To be noted: agar + 5% horse blood, 5% carbon dioxide, 48 hours. The class given is cell-based. As to the method: as §1, §3
The next test deals with Moraxella catarrhalis. In words: MIC, fastidious Gram negative organisms, Mueller-Hinton broth. It is filed as cell-based. To be noted: Mueller-Hinton broth with hemin and NAD, 24 hours, 5×10^4 CFU/well. As to the method: as §1, §3
In the next test the test system is Haemophilus influenzae. Described as above. The class given is cell-based. As to conditions: Mueller-Hinton broth with hemin and NAD, 24 hours, 5×10^4 CFU/well. The procedure: as §1, §3
For another test, the target named is T1, MAO-A (Homo sapiens, UniProt P21397).
T1 construct: made in house; host or cells: yeast
T1 sequence (P21397 1-527): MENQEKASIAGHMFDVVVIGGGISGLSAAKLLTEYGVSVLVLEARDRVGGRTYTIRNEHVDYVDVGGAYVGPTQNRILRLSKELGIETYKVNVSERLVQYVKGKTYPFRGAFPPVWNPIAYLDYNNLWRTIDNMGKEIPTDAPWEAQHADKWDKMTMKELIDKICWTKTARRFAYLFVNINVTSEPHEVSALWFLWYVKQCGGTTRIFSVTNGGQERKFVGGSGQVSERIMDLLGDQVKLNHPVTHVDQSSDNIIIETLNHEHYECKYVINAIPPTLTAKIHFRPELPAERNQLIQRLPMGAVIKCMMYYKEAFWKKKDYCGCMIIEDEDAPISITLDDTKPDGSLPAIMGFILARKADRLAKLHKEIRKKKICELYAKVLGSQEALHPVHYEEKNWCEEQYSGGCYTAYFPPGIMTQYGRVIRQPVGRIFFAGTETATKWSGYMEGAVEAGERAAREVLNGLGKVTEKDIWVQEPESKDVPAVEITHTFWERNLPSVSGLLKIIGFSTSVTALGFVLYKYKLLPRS
Kind of test: MAO-A standard in-vitro assay, human liver enzyme expressed in yeast. It is filed as biochemical. As to the method: The activity of the compounds of the invention against MAO-A was tested using a standard in-vitro assay based on human liver enzyme expressed in yeast as described in Biochem. Biophys. Res. Commun. 1991, 181, 1084–1088.

Values after ≈ are worked out from the molar mass of the structure shown. A value given as a limit tells only on which side of the number the result lay.

With `[N-]=[N+]=NCc1cn(C[C@H]2CN(c3ccc(C4=CC[S+]([O-])CC4)c(F)c3)C(=O)O2)nn1` (stereo partly drawn) [Example 3, (5R)-3-[4-(1(R,S)-Oxo-3,6-dihydro-2H-thiopyran-4-yl)-3-fluorophenyl]-5-[(4-azidomethyl)-1,2,3-triazol-1-ylmethyl]oxazolidin-2-one], the MIC worked out at 8 µg/mL (≈ 18.5 µM) in test [1]; 4 µg/mL (≈ 9.27 µM) in test [2]; 2 µg/mL with Streptococcus pyogenes; 2 µg/mL in the test with Streptococcus pneumoniae; 4 µg/mL (≈ 9.27 µM) with Moraxella catarrhalis; 2 µg/mL (≈ 4.64 µM) against Haemophilus influenzae. Also, on MAO-A, the Ki (commonly the dissociation constant of the complex between target and ligand, obtained from inhibition or displacement) was more than 410 µM.

Values taken from patent US7199143B2, “Chemical compounds” (AstraZeneca AB, priority 2002, dated 2007).
